Experimental data as given in patent US6008188A, “Cytokine potentiator and pharmaceutical formulation for cytokine administration” (Kanebo Limited, priority 1994, dated 1999).
Like-named read-outs stand apart in the source and are kept apart here.

Key:
[1] = system: Normal human fibroblasts [Detroit-551 (ATCC CCL 110)]; experiment: Response to βFGF: procollagenase production by normal human fibroblasts Detroit-551 (Test Examples 4-10); type: cell-based; conditions: for activity at 1000 µM / activity at 3000 µM: Homo sapiens, Detroit 551, 96 h, read-out: Response to βFGF Increment; for Procollagenase Production: mean ± SD, n = 3
Protocol: (§1) In the following tests, the procollagenase production was quantified in terms of the collagenase activity as obtained through activation with trypsin.
(§2) It is known that βFGF promotes procollagenase production. In the following tests, therefore, the βFGF activity increment as attained by the compound added was calculated from the procollagenase production, relative to the control using purified water in place of the test compound.
Normal human fibroblasts [Detroit-551 (ATCC CCL 110) as prepared from the skin of a person] were suspended at a cell density of 1×10^5 cells/ml in the MEM medium, comprising 10% (V/V) FBS, 0.1% (W/V) (as final concentration) of enzymatic hydrolysate of lactalbumin (produced by Sigma Co.), 1% (V/V) non-essential amino acids and 1 mM sodium pyruvate (both produced by Dai-Nippon Pharmaceutical Co.). The suspended cells were seeded into each well of a 12-well plate in an amount of 0.8 ml/well (corresponding to 8×10^4 cells/well) and incubated in a saturated aqueous vapor with 5% CO2 at 37uC.
A cytokine activity enhancer (ethanolamine) as obtained in Example 3 mentioned below was diluted with an MEM medium containing 0.6% (V/V) FBS, 0.1% (W/V) (as final concentration) of enzymatic hydrolysate of lactalbumin, 1% (V/V) non-essential amino acids and 1 mM sodium pyruvate, to be 1 mM, and this was used as a solution to be added to the incubated cells.
After having been incubated for 24 hours, the culture medium was removed from the plate by suction, and the cells remained were washed twice with the MEM medium containing 0.6% (V/V) (as final concentration) of FBS. Then, the cells were fed with 0.8 ml of the solution prepared above, and were incubated for 4 days.
After the 4 days incubation, the culture medium was removed from the plate by suction, and the cells were fed with 0.8 ml of the MEM medium containing 3 ng/ml βFGF, 0.6% (V/V) FBS, 0.1% (W/V) (as final concentration) of enzymatic hydrolysate of lactalbumin, 1% (V/V) non-essential amino acids and 1 mM sodium pyruvate, and were incubated for 3 days to obtain a culture supernatant.
Next, in the same manner as in Test Example 1, procollagenase was recovered from the CM-Sepharose CL-6B (trade name), and the amount of procollagenase thus collected was measured.
A cytokine activity enhancer (N-methylethanolamine) as obtained in Example 4 to be mentioned hereinunder was tested for the βFGF activity increment, in the same manner as in Test Example 4.
Normal human fibroblasts [Detroit-551 (ATCC CCL 110) as collected from the skin of a person] were suspended at a cell density of 1×10^5 cells/ml in the MEM medium (hereinafter referred to as MEM2 medium), comprising 10% (V/V) FBS, 1% (V/V) (as final concentration) of non-essential amino acids and 1 mM sodium pyruvate (both produced by Dai-Nippon Pharmaceutical Co.). The cells were seeded into each well of a 12-well plate in an amount of 0.8 ml/well (corresponding to 8×10^4 cells/well) and incubated in a saturated aqueous vapor with 5% CO2 at 37° C.
A cytokine activity enhancer (Diisopropanolamine) as obtained in Example 5 mentioned below was diluted with the MEM2 medium containing 0.6% (V/V) FBS to be 3 mM, and this was used as a solution to be added to the incubated cells.
After having been incubated for 24 hours, the culture medium was removed from the plate by suction, and the cells remained were washed twice with the MEM2 medium containing 0.6% (V/V) (as final concentration) of FBS. Then, the cells were fed with 0.8 ml of the solution prepared above and were incubated for 2 days.
After the 2 days incubation, the culture was removed by filtration under suction, and 0.8 ml of the solution was again added to the remaining cells, which were then incubated for 2 days. Thus, the cells were incubated for 4 days in total. […]

[2] = system: Japanese native, male house rabbits
Protocol: Aqueous solutions of N-Methyl-L-Serine, Ethanolamine and N-Methylethanolamine that had been adjusted to have a pH of 7 with hydrochloric acid were used as test samples.
Using Japanese native, male house rabbits (body weight: about 3 kg), the test samples were tested according to the Draize method (see Appraisal of the Safety of Chemicals in Foods, Drugs and Cosmetics, p. 46, 1959, edited and published by the Deitorial Committee, Association of Food and Drug Officials of U.S.A.).
24 hours after the last application, the tested area of each rabbit was checked to score the erythema, edema, scab and rhagades, if any, formed in the area.
The erythema score, the edema score, the scab score, and the rhagades score as referred to in Table 17 were summed up to obtain the cumulative stimulation score.
Next, from the cumulative stimulation scores, obtained were the degrees of stimulation with N-Methyl-L-Serine, Ethanolamine and N-Methylethanolamine,according to the criteria shown in Table 18 below.

[3] = system: Japanese native, male house rabbits; remark: listed apart in the source
Protocol: Aqueous solutions of N-methyl-L-serine, ethanolamine and N-methylethanolamine that had been adjusted to have a pH 7 with hydrochloric acid were used as test samples.
Using Japanese native, male house rabbits (body weight: about 3 kg), the test samples were tested according to the above-mentioned the Draize method.
Precisely, the back of each rabbit was shaven and rubbed to form a scratched site (scratched skin). An adhesive tape for patch test (1.2×1.6 cm; Ribbon Aid, registered trade mane, produced by River Tape Chemicals Co.) as wetted with 0.1 ml of water, or 0.1 ml of an aqueous 1% (W/V) solution of the test compound was stuck onto the scratched skin and the normal skin. […] In addition, 48 hours after the peeling of the tape, the condition of the skin was also observed.
The scores as referred to in Table 21 were obtained, and the primary stimulation score was calculated according to the following equation.
Primary Stimulation Score=[(A+B)/2]+[(C+D)/2]+[(E+F)/2]+[(G+H)/2]
Next, from the primary stimulation scores, obtained was the degree of stimulation with N-Methyl-L-Serine or Ethanolamine or N-Methylethanolamineaccording to the criteria shown in Table 22 below.

[4] = system: healthy panelists
Protocol: Aqueous solutions of N-methyl-L-serine, ethanolamine and N-methylethanolamine that had been adjusted to have a pH 7 with hydrochloric acid were used as test samples. These test samples were applied to 19 healthy panelists.
One hour and 24 hours after the removal of the patch, the condition of the skin of each panelist was observed.

[5] = system: IFN; conditions: cited from earlier work
[6] = system: Normal human fibroblasts [CCD45SK (ATCC CRL 1506)]; experiment: Response to βFGF: procollagenase production by normal human fibroblasts CCD45SK (Test Examples 1-3); type: cell-based; conditions: Test Example 3, 1 mM, 10 ng/ml βFGF
Protocol: as §1, §2
Normal human fibroblasts [CCD45SK (ATCC CRL 1506) as prepared from the skin of a person] were suspended at a cell density of 1×10^5 cells/ml in the MEM medium, comprising 10% (V/V) FBS and 1% (V/V) non-essential amino acids (produced by Dai-Nippon Pharmaceutical Co.). The suspended cells were seeded into each well of a 12-well plate in an amount of 0.8 ml/well (corresponding to 8×10^4 cells/well) and incubated in a saturated aqueous vapor with 5% CO2 at 37° C. […]
After having been incubated for 24 hours, the culture medium was removed from the plate by suction, and the cells remained were washed twice with an MEM medium containing 0.6% (v/v) (as final concentration) of FBS. Then, the cells were fed with 0.8 ml of the solution prepared above added to the cells, which were incubated for 2 days.
After the 2 days incubation, the culture medium was removed from the plate by suction, and the cells were fed with 0.8 ml of the solution and were further incubated for 2 days. This operation was repeated once again. Thus, the cells were processed in the medium containing the cytokine activity enhancer for 6 days in total.
After the above-mentioned process, the culture medium was removed from the plate by suction, and the cells were fed with 0.8 ml of an MEM medium containing 3 ng/ml of βFGF (produced by Boehringer Manheim Co.) and 0.6% (V/V) FBS, and were incubated for 3 days to obtain a culture supernatant.
3.5 ml of 10 mM Tris-HCl buffer [adjusted at pH 7.8 at 4° C., containing 1 mM calcium chloride and 0.05% (W/V) Brij-35] was added to 500 μl of the thus-obtained culture supernatant, and applied to CM-Sepharose CL-6B (trade name, produced by Pharmacia Co., having a bed volume of 0.5 ml) as previously equilibrated with the same buffer.
Next, the inhibitor was removed through treatment with 0.5 ml of the same buffer as above but containing 125 mM sodium chloride (4 times in all, 2 ml of the buffer was used in total), and the procollagenase was recovered through treatment with 0.5 ml of the same buffer as above but containing 500 mM sodium chloride (4 times in all, 2 ml of the buffer was used in total). This was used as a test sample.
The test sample was suitably diluted with a buffer for measurement (mentioned above), 25 μl of the thus-diluted sample was mixed with 25 μl of the buffer, 20 μl of a trypsin solution (as prepared by adding trypsin, Type 12 (produced by Sigma Co.) to the buffer at a concentration of 1 mg/ml) was added thereto, and this was incubated at 35° C. for 5 minutes. Then, 30 μl of a soybean trypsin inhibitor solution (as prepared at a concentration of 3 mg/ml, using the buffer) was added to this to thereby inactivate the trypsin. The resulting solution is designated collagenase solution.
Using type I collagen as labeled with fluorescein isothiocyanate (hereinafter referred to as FITC) (this is an acetic acid solution of FITC-collagen having a concentration of 1 mg/ml; produced by Cosmo-Bio Co.), as a substrate solution, the collagenase activity (unit/ml) of the solution was measured according to the method of Nagai et al. (see Inflammations, Vol. 4, No. 2, p. 123, 1984). […] The procollagenase production (unit/ml of culture medium) was thus obtained and referred to as X1.

[7] = system: Normal human fibroblasts [CCD45SK (ATCC CRL 1506)]; experiment: Response to TGF-β1: TIMP production by normal human fibroblasts (Test Examples 12-13); type: cell-based
Protocol: Normal human fibroblasts [CCD45SK (ATCC CRL 1506) as prepared from the skin of a person] were suspended at a cell density of 1×10^5 cells/ml in the MEM medium, comprising 10% (V/V) FBS and 1% (V/V) non-essential amino acids (produced by Dai-Nippon Pharmaceutical Co.). The suspended cells were seeded into each well of a 12-well plate in an amount of 0.8 ml/well (corresponding to 8×10^4 cells/well) and incubated in a saturated aqueous vapor with 5% CO2 at 37° C.

[8] = Test Examples 4-5, 1 mM, 4 days, 3 ng/ml βFGF
[9] = Test Examples 6-10, 3 mM, 4 days, 3 ng/ml βFGF, MEM2 medium, control = 100
[10] = Test Examples 6-10, 3 mM, 4 days, 3 ng/ml βFGF, MEM2 medium

In the case of `CNCCO` [Example 4, N-methylethanolamine], the activity at 1000 µM ([1]; Test Examples 4-5, 1 mM, 4 days, 3 ng/ml βFGF, control = 100) is reported as 180%, the “Procollagenase Production” value [1, 8] is reported as 12 ± 1.7 unit/ml and the “cumulative stimulation to the skin (in words)” value ([2]; rabbit, in vivo) is reported as “low”. For the same molecule, the “Primary Stimulation Score” value ([3]; rabbit, in vivo) was 0.25, the “stimulation to the skin (in words)” value ([3]; rabbit, in vivo) was “low” and the panelists with erythema ([4]; in vivo) was “only one panelists had minor erythema”.
For `CC1(C)[C@@H](O[C@H]2O[C@H](C(=O)O)[C@@H](O)[C@H](O)[C@H]2O[C@@H]2O[C@H](C(=O)O)[C@@H](O)[C@H](O)[C@H]2O)CC[C@]2(C)[C@H]3C(=O)C=C4[C@@H]5C[C@@](C)(C(=O)O)CC[C@]5(C)CC[C@@]4(C)[C@]3(C)CC[C@@H]12` [Glychrrhizic acid, glycyrrhizic acid], the IFN-producing activity [5] is given as “has an IFN-producing activity”.
With `OCCNCCO` [Example 2, diethanolamine] the activity at 1000 µM ([6]; Homo sapiens, Fibroblast, control = 100, read-out: Response to βFGF Increment) was 190% and the “Procollagenase Production” value ([6]; mean ± SD, n = 3) was 14 ± 1.3 unit/ml.
In the case of `CC(N)CO` (racemic) [Example 6, D,L-2-Amino-1-Propanol], the activity at 3000 µM [1, 9] is reported as 380% and the “Procollagenase Production” value [1, 10] is reported as 33 ± 4.7 unit/ml.
With `CCC(O)CN` (stereo not shown) [Example 9, 1-Amino-2-Butanol] the activity at 3000 µM [1, 9] was 290% and the “Procollagenase Production” value [1, 10] was 24 ± 2.3 unit/ml.
With `NCCO` [Example 3, ethanolamine] the activity at 1000 µM [1] was 180%, the “Procollagenase Production” value [1, 8] was 21 ± 1.3 unit/ml and the activity at 1000 µM ([7]; Homo sapiens, Fibroblast, 144 h, read-out: Response to TGF-β1 Increment) was 160%. For the same molecule, the “TIMP Production” value ([7]; Test Example 13, 1 mM, 4 days, supernatant 6 days after TGF-β1, mean ± SD, n = 3) was 250 ± 9.0 unit/ml, the “Cumulative Stimulation Score” value ([2]; 0.1 ml of aqueous 0.1% (W/V) solution, once a day for 4 days) was 0 and the “cumulative stimulation to the skin (in words)” value ([2]; aqueous 0.1% (W/V) solution) was “low”. The “Primary Stimulation Score” value ([3]; 0.1 ml of aqueous 1% (W/V) solution, patch 24 hours, normal and scratched skin) was 0, the “stimulation to the skin (in words)” value ([3]; aqueous 1% (W/V) solution) was “low” and the panelists with erythema ([4]; 0.05 ml of aqueous 1% (W/V) solution, 24 hours closed patch, 1 hour and 24 hours after removal, 19 panelists) was “only one panelists had minor erythema”.
For `NCC(O)CN` [Example 8, 1,3-Diamino-2-Propanol], the activity at 3000 µM [1, 9] was 150% and the “Procollagenase Production” value [1, 10] was 18 ± 0.95 unit/ml.
With `CC(O)CNCC(C)O` (stereo not shown) [Example 5, Diisopropanolamine] the activity at 3000 µM [1, 9] was 760% and the “Procollagenase Production” value [1, 10] was 65 ± 13 unit/ml.
In the case of `CCC(N)CO` (stereo not shown) [Example 7, 2-Amino-1-Butanol], the activity at 3000 µM [1, 9] is reported as 190% and the “Procollagenase Production” value [1, 10] is reported as 22 ± 2.4 unit/ml.
